In US20050009889A1 (priority 2002, published 2005):
Like-named read-outs stand apart in the source and are kept apart here. Marks after values point to notes of the source that are not given here.

What was measured:
Format in all cases: in vivo
grape downy mildew = test: Curative utility, in addition to the Tests of Table A; conditions: especially for grape downy mildew
[1] = system: Erysiphe graminis f. sp. tritici; test: Test A: preventive control of wheat powdery mildew on wheat seedlings; conditions: wheat seedlings sprayed to run-off, inoculated next day, rated after 7 days; concentration not given
Source text: (§1) General protocol for preparing test suspensions: Test compounds are first dissolved in acetone in an amount equal to 3% of the final volume and then suspended at the desired concentration (in ppm) in acetone and purified water (50/50 mix) containing 250 ppm of the surfactant Trem® 014 (polyhydric alcohol esters). The resulting test suspensions are then used in the following tests. Spraying a 200 ppm test suspension to the point of run-off on the test plants is the equivalent of a rate of 500 g/ha.
The test suspension was sprayed to the point of run-off on wheat seedlings. The following day the seedlings were inoculated with a spore dust of Erysiphe graminis f. sp. tritici, (the causal agent of wheat powdery mildew) and incubated in a growth chamber at 20° C. for 7 days, after which disease ratings were made.

Plasmopara viticola [2] = test: Test E: preventive control of grape downy mildew on grape seedlings
Source text: as §1
The test suspension was sprayed to the point of run-off on grape seedlings. The following day the seedlings were inoculated with a spore suspension of Plasmopara viticola (the causal agent of grape downy mildew) and incubated in a saturated atmosphere at 20° C. for 24 h, moved to a growth chamber at 20° C. for 6 days, and then incubated in a saturated atmosphere at 20° C. for 24 h, after which disease ratings were made.

Plasmopara viticola [3] = test: Test G: curative control of grape downy mildew on grape seedlings
Source text: as §1
Grape seedlings are inoculated with a spore suspension of Plasmopara viticola (the casual agent of grape downy mildew) and incubated in a saturated atmosphere at 20° C. for 24 h. The next day, test suspension is sprayed to the point of run-off and the treated plants are moved to a growth chamber at 20° C. for 6 days, and then incubated in a saturated atmosphere at 20° C. for 24 h, after which disease ratings are made.

Phytophthora infestans [4] = system: Phytophthora infestans
Phytophthora infestans [5] = conditions: tomato seedlings sprayed to run-off, inoculated next day; concentration not given
Pyricularia oryzae = conditions: rice seedlings sprayed to run-off, inoculated next day; concentration not given
Puccinia recondita = test: Test B: preventive control of wheat leaf rust on wheat seedlings; conditions: wheat seedlings sprayed to run-off, inoculated next day; concentration not given
Source text: as §1
The test suspension was sprayed to the point of run-off on wheat seedlings. The following day the seedlings were inoculated with a spore suspension of Puccinia recondita (the causal agent of wheat leaf rust) and incubated in a saturated atmosphere at 20° C. for 24 h, and then moved to a growth chamber at 20° C. for 6 days, after which disease ratings were made.

[6] = grape seedlings sprayed to run-off, inoculated next day, concentration not given
[7] = curative, 100 ppm on potato seedlings
[8] = grape seedlings, curative, 20 ppm
[9] = grape seedlings inoculated, sprayed next day (curative), concentration not given

| Compound | curative utility (grape downy mildew) | Test A disease control rating (100 = 100% disease control, 0 = no control) [1] [%] | Test E disease control rating (100 = 100% disease control, 0 = no control) (Plasmopara viticola [2]; [6]) [%] | Test G disease control rating (100 = 100% disease control, 0 = no control) (Plasmopara viticola [3]; grape seedlings, curative, 100 ppm (footnote *)) | Test F disease control rating (100 = 100% disease control, 0 = no control) (Phytophthora infestans [4]; [7]) | Test D disease control rating (100 = 100% disease control, 0 = no control) (Phytophthora infestans [5]) [%] | Test C disease control rating (100 = 100% disease control, 0 = no control) (Pyricularia oryzae) [%] | Test B disease control rating (100 = 100% disease control, 0 = no control) (Puccinia recondita) [%] | Test G disease control rating (100 = 100% disease control, 0 = no control) (Plasmopara viticola [3]; [8]) | Test E disease control rating (100 = 100% disease control, 0 = no control) (Plasmopara viticola [2]; grape seedlings, preventive, 100 ppm (footnote *)) | Test G disease control rating (100 = 100% disease control, 0 = no control) (Plasmopara viticola [3]; [9]) [%] | Test F disease control rating (100 = 100% disease control, 0 = no control) (Phytophthora infestans [4]; seedlings inoculated, sprayed next day (curative), concentration not given) [%] |
| --- | --- | --- | --- | --- | --- | --- | --- | --- | --- | --- | --- | --- |
| 2,4-Dichloro-N-[1-[3-chloro-5-(trifluoromethyl)-2-pyridinyl]ethyl]-3-pyridinecarboxamide [Compound 21] | significant curative utility | 0 | 100 | 100* % | 100# % | 100 | 0 | 74 | – | – | – | – |
| CC(NC(=O)c1c(Cl)ccnc1Cl)c1ncc(C(F)(F)F)cc1Cl (single isomer, unassigned; (+)) [Compound 22, (+)-2,4-Dichloro-N-[1-[3-chloro-5-(trifluoromethyl)-2-pyridinyl]ethyl]-3-pyridinecarboxamide] | significant curative utility | – | 100 | – | 100# % | 100 | 0 | – | 100** % | – | – | – |
| CC(NC(=O)c1c(Cl)ccnc1Cl)c1ncc(C(F)(F)F)cc1Cl (single isomer, unassigned; (-)) [Compound 23, (−)-2,4-Dichloro-N-[-1-[3-chloro-5-(trifluoromethyl)-2-pyridinyl]ethyl]-3-pyridinecarboxamide] | – | – | – | – | 65# % | – | – | – | 0** % | 69* % | – | – |
| Cc1cc(Cl)c(C(=O)NCc2ncc(C(F)(F)F)cc2Cl)c(Cl)n1 [Compound 5, 2,4-Dichloro-N-[[3-chloro-5-(trifluoromethyl)-2-pyridinyl]methyl]-6-methyl-3-pyridinecarboxamide] | significant curative utility | 0 | 100 | – | 100# % | 100 | – | 8 | – | – | 96 | – |
| Nc1ncccc1C(=O)NCc1ncc(C(F)(F)F)cc1Cl [Compound 6] | – | 0 | 0 | – | – | 7 | 0 | 28 | – | – | 8 | – |
| O=C(NCc1ncc(C(F)(F)F)cc1Cl)c1cncc(Br)c1 [Compound 7] | – | 0 | 0 | – | – | 16 | 74 | 9 | – | – | 0 | – |
| O=C(NCc1ncc(C(F)(F)F)cc1Cl)c1cccnc1O [Compound 8] | – | 0 | 8 | – | – | 7 | 0 | 9 | – | – | 8 | – |
| COc1ncccc1C(=O)NCc1ncc(C(F)(F)F)cc1Cl [Compound 9] | – | 0 | 24 | – | – | 7 | 0 | 19 | – | – | 24 | – |
| CCOc1ncccc1C(=O)NCc1ncc(C(F)(F)F)cc1Cl [Compound 10] | – | 0 | 23 | – | – | 3 | 0 | 9 | – | – | 23 | – |
| Cc1ccc(C(=O)NCc2ncc(C(F)(F)F)cc2Cl)c(Cl)n1 [Compound 11] | – | 0 | 98 | – | – | 100 | 90 | 19 | – | – | 99 | 0 |
| O=C(NCc1ncc(C(F)(F)F)cc1Cl)c1ccc(C(F)(F)F)nc1Br [Compound 12] | – | 0 | 0 | – | – | 32 | 80 | 9 | – | – | 0 | – |
| Cc1ccc(C(=O)NCc2ncc(C(F)(F)F)cc2Cl)c(O)n1 [Compound 13] | – | 0 | 8 | – | – | 7 | 0 | 9 | – | – | 8 | – |
| Cc1nc(C(F)(F)F)ccc1C(=O)NCc1ncc(C(F)(F)F)cc1Cl [Compound 14] | – | 0 | 8 | – | – | 25 | 87 | 28 | – | – | 8 | – |
| Cc1nc(C(F)(F)C(F)(F)F)ccc1C(=O)NCc1ncc(C(F)(F)F)cc1Cl [Compound 15] | – | 69 | 8 | – | – | 16 | 88 | 68 | – | – | 8 | – |
| COc1nc(C(F)(F)F)ccc1C(=O)NCc1ncc(C(F)(F)F)cc1Cl [Compound 16] | – | 0 | 0 | – | – | 7 | 0 | 0 | – | – | 0 | – |
| Cc1nc(Cl)ccc1C(=O)NCc1ncc(C(F)(F)F)cc1Cl [Compound 17] | – | 0 | 16 | – | – | 79 | 13 | 9 | – | – | 16 | – |
| O=C(NCc1ncc(C(F)(F)F)cc1Cl)c1ccc(C(F)(F)F)nc1 [Compound 18] | – | 0 | 0 | – | – | 25 | 0 | 32 | – | – | 0 | – |
